The results in this text go back to patent US20250289810A1, “Compounds As NLRP3 Inflammasome Inhibitors And Their Use As Medicaments” (MAM-AGE S.R.L., priority 2022, published 2025).

The assay concerns the target T1, NLRP3 inflammasome (Mus musculus, UniProt Q8R4B8).
T1 construct: bone marrow-derived macrophages (BMDMs) from wild type (WT) mice first primed with 1 μg/ml lipopolysaccharide (LPS); endogenous in cells; host or cells: primary BMDMs from wild type mice
Description: Inhibition of NLRP3-mediated IL-1β release in BMDMs (LPS + Bz-ATP), ELISA. In kind it is cell-based. Particulars: BMDM; BMDMs from WT mice, LPS + BzATP, compound at 1 μM; read-out: Inhibitory rate of IL-1β release. Background: An ELISA detects its analyte on a solid surface through an enzyme-linked reagent.

SMILES strings stand for the structures.

T1 sequence (Q8R4B8 whole entry): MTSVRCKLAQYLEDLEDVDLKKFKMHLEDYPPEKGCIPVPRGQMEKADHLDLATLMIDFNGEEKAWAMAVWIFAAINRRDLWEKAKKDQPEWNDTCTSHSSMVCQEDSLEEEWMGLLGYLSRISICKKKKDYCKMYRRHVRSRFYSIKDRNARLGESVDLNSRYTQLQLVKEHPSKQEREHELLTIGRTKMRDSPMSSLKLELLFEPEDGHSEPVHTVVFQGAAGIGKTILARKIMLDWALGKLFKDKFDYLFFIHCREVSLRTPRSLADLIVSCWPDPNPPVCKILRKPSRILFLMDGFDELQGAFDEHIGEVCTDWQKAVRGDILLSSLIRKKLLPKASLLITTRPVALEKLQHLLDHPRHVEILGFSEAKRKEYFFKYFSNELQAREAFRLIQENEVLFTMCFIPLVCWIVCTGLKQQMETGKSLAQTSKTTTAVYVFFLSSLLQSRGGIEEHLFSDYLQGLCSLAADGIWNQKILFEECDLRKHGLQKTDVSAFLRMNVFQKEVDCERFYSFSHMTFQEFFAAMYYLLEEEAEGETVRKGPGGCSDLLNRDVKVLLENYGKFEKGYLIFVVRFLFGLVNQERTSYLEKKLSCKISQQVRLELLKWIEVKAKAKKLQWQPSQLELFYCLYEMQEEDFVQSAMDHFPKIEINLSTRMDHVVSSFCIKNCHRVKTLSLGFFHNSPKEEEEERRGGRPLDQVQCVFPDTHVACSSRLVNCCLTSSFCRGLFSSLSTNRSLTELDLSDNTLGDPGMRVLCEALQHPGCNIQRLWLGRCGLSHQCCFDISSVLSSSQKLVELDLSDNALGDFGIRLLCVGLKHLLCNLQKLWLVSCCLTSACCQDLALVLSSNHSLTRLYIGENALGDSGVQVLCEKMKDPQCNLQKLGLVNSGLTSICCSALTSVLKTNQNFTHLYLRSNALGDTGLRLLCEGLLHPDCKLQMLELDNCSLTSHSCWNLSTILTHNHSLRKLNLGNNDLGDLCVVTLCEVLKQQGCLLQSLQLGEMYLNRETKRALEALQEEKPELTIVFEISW

On to `O=C(Nc1c2c(cc3c1CCC3)CCC2)C1CCCN1S(=O)(=O)c1ccc([N+](=O)[O-])cc1` (centres unmarked) [Compound 3a of Formula (IV), N-(1,2,3,5,6,7-hexahydro-s-indacen-4-yl)-1-((4-nitrophenyl)sulfonyl)pyrrolidine-2-carboxamide], for which the inhibition at 1 µM is 25.7%. The same measure for `O=C(Nc1c2c(cc3c1CCC3)CCC2)C1CCCCN1S(=O)(=O)c1ccc([N+](=O)[O-])cc1` (centres unmarked) [Compound 3b of Formula (IV), N-(1,2,3,5,6,7-hexahydro-s-indacen-4-yl)-1-((4-nitrophenyl)sulfonyl)piperidine-2-carboxamide]: 52.4%; for `Nc1ccc(S(=O)(=O)N2CCCC2C(=O)Nc2c3c(cc4c2CCC4)CCC3)cc1` (centres unmarked) [Compound 4a of Formula (IV), 1-((4-aminophenyl)sulfonyl)-N-(1,2,3,5,6,7-hexahydro-s-indacen-4-yl)pyrrolidine-2-carboxamide]: 41.6%; for `Nc1ccc(S(=O)(=O)N2CCCCC2C(=O)Nc2c3c(cc4c2CCC4)CCC3)cc1` (centres unmarked) [Compound 4b of Formula (IV), 1-((4-aminophenyl)sulfonyl)-N-(1,2,3,5,6,7-hexahydro-s-indacen-4-yl)piperidine-2-carboxamide]: 25.4%. With `CC(C)C[C@H](NS(=O)(=O)c1ccc([N+](=O)[O-])cc1)C(=O)Nc1c2c(cc3c1CCC3)CCC2` [Compound 6e of Formula (III), (S)—N-(1,2,3,5,6,7-hexahydro-s-indacen-4-yl)-4-methyl-2-((4-nitrophenyl)sulfonamido)pentanamide] the figure was 53.9%; with `O=C(Nc1c2c(cc3c1CCC3)CCC2)[C@@H](NS(=O)(=O)c1ccc([N+](=O)[O-])cc1)c1ccccc1` [Compound 6f of Formula (III), (S)—N-(1,2,3,5,6,7-hexahydro-s-indacen-4-yl)-2-((4-nitrophenyl)sulfonamido)-2-phenylacetamide], 44.8%; with `O=C(Nc1c2c(cc3c1CCC3)CCC2)[C@H](Cc1ccccc1)NS(=O)(=O)c1ccc([N+](=O)[O-])cc1` [Compound 6g of Formula (III), (S)—N-(1,2,3,5,6,7-hexahydro-s-indacen-4-yl)-2-((4-nitrophenyl)sulfonamido)-3-phenylpropanamide], 19.8%. The same measure for `O=C(Nc1c2c(cc3c1CCC3)CCC2)[C@@H](Cc1ccccc1)NS(=O)(=O)c1ccc([N+](=O)[O-])cc1` [Compound 6h of Formula (III), (R)—N-(1,2,3,5,6,7-hexahydro-s-indacen-4-yl)-2-((4-nitrophenyl)sulfonamido)-3-phenylpropanamide]: 49.5%; for `O=C(CCNS(=O)(=O)c1ccc([N+](=O)[O-])cc1)Nc1c2c(cc3c1CCC3)CCC2` [Compound 6k of Formula (III), N-(1,2,3,5,6,7-hexahydro-s-indacen-4-yl)-3-((4-nitrophenyl)sulfonamido)propanamide]: 36.5%.

On to `C[C@H](NS(=O)(=O)c1ccc(N)cc1)C(=O)Nc1c2c(cc3c1CCC3)CCC2` [Compound 7b of Formula (III), (S)-2-((4-aminophenyl)sulfonamido)-N-(1,2,3,5,6,7-hexahydro-s-indacen-4-yl)propanamide], for which the inhibition at 1 µM turned out to be 17.3%. As to `CC(C)[C@H](NS(=O)(=O)c1ccc(N)cc1)C(=O)Nc1c2c(cc3c1CCC3)CCC2` [Compound 7c of Formula (III), (S)-2-((4-aminophenyl)sulfonamido)-N-(1,2,3,5,6,7-hexahydro-s-indacen-4-yl)-3-methylbutanamide], the inhibition at 1 µM was 50.2%. With `CC(C)[C@@H](NS(=O)(=O)c1ccc(N)cc1)C(=O)Nc1c2c(cc3c1CCC3)CCC2` [Compound 7d of Formula (III), (R)-2-((4-aminophenyl)sulfonamido)-N-(1,2,3,5,6,7-hexahydro-s-indacen-4-yl)-3-methylbutanamide] the figure was 8.4%. With `CC(C)C[C@H](NS(=O)(=O)c1ccc(N)cc1)C(=O)Nc1c2c(cc3c1CCC3)CCC2` [Compound 7e of Formula (III), (S)-2-((4-aminophenyl)sulfonamido)-N-(1,2,3,5,6,7-hexahydro-s-indacen-4-yl)-4-methylpentanamide] the figure was 31.5%.

In the case of `Nc1ccc(S(=O)(=O)N[C@H](C(=O)Nc2c3c(cc4c2CCC4)CCC3)c2ccccc2)cc1` [Compound 7f of Formula (III), (S)-2-((4-aminophenyl)sulfonamido)-N-(1,2,3,5,6,7-hexahydro-s-indacen-4-yl)-2-phenylacetamide], the inhibition at 1 µM was determined as 16.1%.

`Nc1ccc(S(=O)(=O)N[C@@H](Cc2ccccc2)C(=O)Nc2c3c(cc4c2CCC4)CCC3)cc1` [Compound 7g of Formula (III), (S)-2-((4-aminophenyl)sulfonamido)-N-(1,2,3,5,6,7-hexahydro-s-indacen-4-yl)-3-phenylpropanamide]: the inhibition at 1 µM was 38%. With `Nc1ccc(S(=O)(=O)N[C@H](Cc2ccccc2)C(=O)Nc2c3c(cc4c2CCC4)CCC3)cc1` [Compound 7h of Formula (III), (R)-2-((4-aminophenyl)sulfonamido)-N-(1,2,3,5,6,7-hexahydro-s-indacen-4-yl)-3-phenylpropanamide] the figure was 46.4%. The same measure for `Nc1ccc(S(=O)(=O)NCCC(=O)Nc2c3c(cc4c2CCC4)CCC3)cc1` [Compound 7k of Formula (III), 3-((4-aminophenyl)sulfonamido)-N-(1,2,3,5,6,7-hexahydro-s-indacen-4-yl)propanamide]: 22.3%; for `O=C(Nc1c2c(cc3c1CCC3)CCC2)[C@H](Cc1ccc(O)cc1)NS(=O)(=O)c1ccc([N+](=O)[O-])cc1` [Compound 8 of Formula (III), (S)—N-(1,2,3,5,6,7-hexahydro-s-indacen-4-yl)-3-(4-hydroxyphenyl)-2-((4-nitrophenyl)sulfonamido)propanamide]: 34.7%; for `NCCCC[C@H](NS(=O)(=O)c1ccc([N+](=O)[O-])cc1)C(=O)Nc1c2c(cc3c1CCC3)CCC2` [Compound 9 of Formula (III), (S)-6-amino-N-(1,2,3,5,6,7-hexahydro-s-indacen-4-yl)-2-((4-nitrophenyl)sulfonamido)hexanamide]: 47.5%. The same measure for `NCCCC[C@H](NS(=O)(=O)c1ccc(N)cc1)C(=O)Nc1c2c(cc3c1CCC3)CCC2` [Compound 11 of Formula (III), (S)-6-amino-2-((4-aminophenyl)sulfonamido)-N-(1,2,3,5,6,7-hexahydro-s-indacen-4-yl)hexanamide]: 28.4%.
